Our source for the half-life values is patent US9809623B2, “α4β7 peptide monomer and dimer antagonists” (Protagonist Therapeutics, Inc., priority 2014, dated 2017).

Numbered stars: 1 amine (or outer) side, 2 acyl side, 3 side chain; on linkers, the order of the positions; unused ones are H or OH. Bridge positions count the residues as written; N and C are the ends. Square brackets hold non-standard residues; d marks the D form. Peptide text beside a SMILES is read from it. I, II: the chains in the order shown. 2Nal = N[C@@H](Cc1ccc2ccccc2c1)C(=O)O; Diglycolyl = O=C(COCC(=O)[*:2])[*:1]; NMeR = CN[C@@H](CCCNC(=N)N)C(=O)O; Pen = CC(C)(S)[C@H](N)C(=O)O; dNMeK = CN[C@H](CCCCN)C(=O)O Bounds are passed on as bounds.

The nature of this data set: Intestinal Wash Assay. The format is in vitro ADME. Details: dose or concentration left out as unconfirmed. As to conditions: rat, rat intestinal wash fluid (small intestine); Table 4-C, t1/2. Here is the method: Intestinal wash assay solution was prepared from rats fasted for at least 6 hours prior. The animals were euthanized and a midline incision was made from the point of the jaw to the pubis. The abdomen and chest were opened by making 2 incisions through the anterior chest wall on either side. Hemostats were used to clamp off both ends of the animal's stomach—where the esophagus meets the stomach and where the stomach meets the duodenum. A hemostat was also used to clamp 2-3 cm down the intestine from where the stomach meets the duodenum.
Intestinal wash assay solution was prepared by separating 20 cm of the small intestine from the body. Once separated 20 cm, the end was clamped with a hemostat and the section cut from the body, leaving the hemostats in place on the removed section. 1 mL of chilled saline was drawn up with a 1 mL syringe. One end of the intestine was held up and the clamp removed. Approximately 2-2.5 cm of the gavage needle was inserted into the intestine, and the saline was slowly injected. The fluid was massaged down the length of the intestine using gloved fingers. The gavage needle was removed and the clamp was replaced on the end of the intestine. The intestine was sat straight and a q-tip was run firmly up and down the length of the outside of the intestine approximately 3-6 times to mix the enzymes with the saline. One end of the intestine was held up and some of the fluid was carefully moved at the top down. The clamp was removed and that end of the intestine was set into a small weigh boat on ice. The other end of the intestine was carefully picked up and held vertically. Gloved fingers were gently run down it to squeeze the fluid into the container. The previous steps saline injection and fluid procurement steps were repeated twice using only 0.5 mL of chilled saline. The sample was pipetted from the weigh boat into a centrifuge tube and placed on ice. All intestinal wash samples were spun down in a cold centrifuge at 12,000×g for 10 minutes. The supernatant from the top of each centrifuged sample was pipetted into cryotubes, and kept on ice until use.
Intestinal wash assays were performed using intestinal wash assay solution prepared as described above. A sufficient amount of rat intestinal wash was thawed. For each sample, 200 uL of rat intestinal wash fluid was pipetted into 1.5 mL Eppendorf tubes (number of tubes for experiment=number of test peptides×N). The tubes were pre-incubated for about 10 minutes in a water bath at 37° C.
Peptide working solutions ([…]) were prepared by combining 2 μl of 10 mM DMSO stock with 128 μl 100 mM Tris pH 7.5.
Peptide quench solvent (50% ACN-50% MeOH-5% Formic Acid)+IS (5 ug/ml; 1 ul of 10 mg/mL IS per 2 mL quench solvent) was prepare and a quench plate prepared and placed on ice. 200 ul of quench solution was added to each well of the quench plate for T=0, 10, 20, 30, 60 and 180 min collection.
For each test sample and a positive control, 30 ul of peptide working solution was added to a tube of intestinal wash fluid. The tube was gently vortexed and 30 ul was immediately removed and quenched in T=0 well of quench plate (pipetted directly into the quench solution). This well was covered tightly to prevent evaporation. 30 ul aliquots were removed at T=10 min, T=20 min, T=30 min, T=60 min, and T=180 min, and quenched. When all time points were collected, the quench plate was centrifuged at 10,000 rpm for 10 minutes. 150 uL of each supernatant was transferred to a polypropylene 96-well collection plate. 300 ul Mobile Phase A was added to each collection, and LC/MS/MS analysis was performed to determine the amount or concentration of peptide remaining in each test sample and positive control.
Take `CC(=O)N[C@H]1CSSC[C@@H](C(=O)NCC(=O)N[C@@H](CCC(=O)O)C(N)=O)NC(=O)[C@H](CC(C)C)NC(=O)[C@H]([C@@H](C)O)NC(=O)[C@H](CC(=O)O)NC(=O)[C@H](CO)NC(=O)[C@H](CCCNC(=N)N)N(C)C1=O` [compound 198, Ac-C-N-Me-R-S-D-T-L-C-G-E-NH2] (Ac-C[NMeR]SDTLCGE-NH2; disulfide 1-7): the half-life was determined as 0.5 h.
On to `CC(=O)N[C@H]1CSSC(C)(C)[C@@H](C(=O)N[C@@H](Cc2c[nH]c3ccccc23)C(=O)N[C@H](CCCCNC(=O)COCC(=O)NCCCC[C@@H](NC(=O)[C@H](Cc2c[nH]c3ccccc23)NC(=O)[C@H]2NC(=O)[C@H](CC(C)C)NC(=O)[C@H]([C@@H](C)O)NC(=O)[C@H](CC(=O)O)NC(=O)[C@H](CO)NC(=O)[C@H](CCCNC(=N)N)N(C)C(=O)[C@@H](NC(C)=O)CSSC2(C)C)C(N)=O)C(N)=O)NC(=O)[C@H](CC(C)C)NC(=O)[C@H]([C@@H](C)O)NC(=O)[C@H](CC(=O)O)NC(=O)[C@H](CO)NC(=O)[C@H](CCCNC(=N)N)N(C)C1=O` [compound 204, (Ac-C-N-Me-R-S-D-T-L-Pen-W-k-NH2)2-DIG] (I: Ac-C[NMeR]SDTL[Pen]W[dK]-NH2 / II: Ac-C[NMeR]SDTL[Pen]W[dK]-NH2; disulfide I:1-I:7, II:1-II:7 (inferred); linker I:9-II:9 via Diglycolyl (inferred)), for which the half-life is more than 3 h.
`CC(=O)N[C@@H]1C(=O)N[C@@H](CCCNC(=N)N)C(=O)N[C@@H](CO)C(=O)N[C@@H](CC(=O)O)C(=O)N[C@@H]([C@@H](C)O)C(=O)N[C@@H](CC(C)C)C(=O)N[C@H](C(=O)N[C@H](CCCCNC(=O)COCC(=O)NCCCC[C@@H](NC(=O)[C@@H]2CSSC(C)(C)[C@H](NC(C)=O)C(=O)N[C@@H](CCCNC(=N)N)C(=O)N[C@@H](CO)C(=O)N[C@@H](CC(=O)O)C(=O)N[C@@H]([C@@H](C)O)C(=O)N[C@@H](CC(C)C)C(=O)N2)C(N)=O)C(N)=O)CSSC1(C)C` [compound 207, (Ac-Pen-R-S-D-T-L-C-k-NH2)2-DIG] (I: Ac-[Pen]RSDTLC[dK]-NH2 / II: Ac-[Pen]RSDTLC[dK]-NH2; disulfide I:1-I:7, II:1-II:7 (inferred); linker I:8-II:8 via Diglycolyl (inferred)) had a half-life of less than 0.167 h.
The same measure for `CC(=O)N[C@@H]1C(=O)N(C)[C@@H](CCCNC(=N)N)C(=O)N[C@@H](CO)C(=O)N[C@@H](CC(=O)O)C(=O)N[C@@H]([C@@H](C)O)C(=O)N[C@@H](CC(C)C)C(=O)N[C@H](C(=O)N[C@@H](Cc2c[nH]c3ccccc23)C(=O)N[C@H](CCCCNC(=O)COCC(=O)NCCCC[C@@H](NC(=O)[C@H](Cc2c[nH]c3ccccc23)NC(=O)[C@H]2NC(=O)[C@H](CC(C)C)NC(=O)[C@H]([C@@H](C)O)NC(=O)[C@H](CC(=O)O)NC(=O)[C@H](CO)NC(=O)[C@H](CCCNC(=N)N)N(C)C(=O)[C@@H](NC(C)=O)C(C)(C)SSC2(C)C)C(N)=O)C(N)=O)C(C)(C)SSC1(C)C` [compound 209, (Ac-Pen-N-Me-R-S-D-T-L-Pen-W-k-NH2)2-DIG] (I: Ac-[Pen][NMeR]SDTL[Pen]W[dK]-NH2 / II: Ac-[Pen][NMeR]SDTL[Pen]W[dK]-NH2; disulfide I:1-I:7, II:1-II:7 (inferred); linker I:9-II:9 via Diglycolyl (inferred)): more than 3 h; for `CC(=O)N[C@@H]1C(=O)N(C)[C@@H](CCCNC(=N)N)C(=O)N[C@@H](CO)C(=O)N[C@@H](CC(=O)O)C(=O)N[C@@H]([C@@H](C)O)C(=O)N[C@@H](CC(C)C)C(=O)N[C@H](C(=O)N[C@@H](Cc2c[nH]c3ccccc23)C(=O)N[C@H](CCC(=O)O)C(=O)N[C@H](CCCCNC(=O)COCC(=O)NCCCC[C@@H](NC(=O)[C@@H](CCC(=O)O)NC(=O)[C@H](Cc2c[nH]c3ccccc23)NC(=O)[C@H]2NC(=O)[C@H](CC(C)C)NC(=O)[C@H]([C@@H](C)O)NC(=O)[C@H](CC(=O)O)NC(=O)[C@H](CO)NC(=O)[C@H](CCCNC(=N)N)N(C)C(=O)[C@@H](NC(C)=O)C(C)(C)SSC2(C)C)C(N)=O)C(N)=O)C(C)(C)SSC1(C)C` [compound 211, (Ac-Pen-N-Me-R-S-D-T-L-Pen-W-e-k-NH2)2-DIG] (I: Ac-[Pen][NMeR]SDTL[Pen]W[dE][dK]-NH2 / II: Ac-[Pen][NMeR]SDTL[Pen]W[dE][dK]-NH2; disulfide I:1-I:7, II:1-II:7 (inferred); linker I:10-II:10 via Diglycolyl (inferred)): 2.98 h.
The same measure for `CC(=O)N[C@@H]1C(=O)N(C)[C@@H](CCCNC(=N)N)C(=O)N[C@@H](CO)C(=O)N[C@@H](CC(=O)O)C(=O)N[C@@H]([C@@H](C)O)C(=O)N[C@@H](CC(C)C)C(=O)N[C@H](C(=O)N[C@@H](Cc2ccc3ccccc3c2)C(=O)N[C@@H](CCC(=O)O)C(=O)N[C@H](CCCCNC(=O)COCC(=O)NCCCC[C@@H](NC(=O)[C@H](CCC(=O)O)NC(=O)[C@H](Cc2ccc3ccccc3c2)NC(=O)[C@H]2NC(=O)[C@H](CC(C)C)NC(=O)[C@H]([C@@H](C)O)NC(=O)[C@H](CC(=O)O)NC(=O)[C@H](CO)NC(=O)[C@H](CCCNC(=N)N)N(C)C(=O)[C@@H](NC(C)=O)C(C)(C)SSC2(C)C)C(N)=O)C(N)=O)C(C)(C)SSC1(C)C` [compound 212, (Ac-Pen-N-Me-R-S-D-T-L-Pen-2-Nal-E-k-NH2)2-DIG] (I: Ac-[Pen][NMeR]SDTL[Pen][2Nal]E[dK]-NH2 / II: Ac-[Pen][NMeR]SDTL[Pen][2Nal]E[dK]-NH2; disulfide I:1-I:7, II:1-II:7 (inferred); linker I:10-II:10 via Diglycolyl (inferred)): 1.63 h; for `CC(=O)N[C@@H]1C(=O)N(C)[C@@H](CCCNC(=N)N)C(=O)N[C@@H](CO)C(=O)N[C@@H](CC(=O)O)C(=O)N[C@@H]([C@@H](C)O)C(=O)N[C@@H](CC(C)C)C(=O)N[C@H](C(=O)N[C@@H](Cc2c[nH]c3ccccc23)C(=O)N[C@@H](CCC(=O)O)C(=O)N(C)[C@H](CCCCNC(=O)COCC(=O)NCCCC[C@H](C(N)=O)N(C)C(=O)[C@H](CCC(=O)O)NC(=O)[C@H](Cc2c[nH]c3ccccc23)NC(=O)[C@H]2NC(=O)[C@H](CC(C)C)NC(=O)[C@H]([C@@H](C)O)NC(=O)[C@H](CC(=O)O)NC(=O)[C@H](CO)NC(=O)[C@H](CCCNC(=N)N)N(C)C(=O)[C@@H](NC(C)=O)C(C)(C)SSC2(C)C)C(N)=O)C(C)(C)SSC1(C)C` [compound 214, [Ac-Pen-(N-Me-Arg)-Ser-Asp-Thr-Leu-Pen-Trp-Glu-(N-Me-D-Lys)-NH2]2-DIG] (I: Ac-[Pen][NMeR]SDTL[Pen]WE[dNMeK]-NH2 / II: Ac-[Pen][NMeR]SDTL[Pen]WE[dNMeK]-NH2; disulfide I:1-I:7, II:1-II:7 (inferred); linker I:10-II:10 via Diglycolyl (inferred)): more than 6 h.

The term half-life denotes the time needed for the level to fall by half in the phase considered.
